Measured values published in US6482609B1, “Isolated human EDG-4 receptor and polynucletide encoding said receptor” (priority 1997, dated 2002).
“Also recorded” adds a separate entry of the source.

How the values were obtained:
[1] = test system: Human Umbilical Vein Endothelial Cells (HUVEC); assay: IL-8 ELISA on primary cultured HUVEC treated with lysolipids; type: cell-based; details: 6 hr treatment
Protocol: Plating, Pretreatment and Treatment of HUVEC
Procedures were followed as detailed above in “Procedure #1 for HeLa Cells” with the following exceptions:
Cells were plated at 20,000 cells/well into 24-well plates. The next day, cells were serum-starved overnight in EBM medium (Clonetics) with 0.5% FBS, and then treated in EBM without FBS for 6 hr with the following lysolipids:
Supematants were collected and IL-8 levels were deternined using ELISA as described previously.

[2] = test system: HL-60 cells; assay: IL-8 ELISA on HL-60 cells; type: cell-based, human; details: 1, 6 or 24 hr, S1P or LPA up to 3 μM, TNF-α 10 ng/ml
Protocol: Procedure for HL-60 Cells:
Cells: HL-60 (promyelocytic, human) suspension cells
Media: RPMI 1640 medium with 2 mM L-glutamine adjusted to contain 4.5 g/L glucose, 10 mM HEPES, and 1.0 mM sodium pyruvate+10% FBS
1) Cells were plated at a density of 0.25×10^6 cells/ml.
2) Cell pellcts were resuspended in 0.5% FBS media at a density of approximately 1×10^6 cells/ml.
1) Made up all required solutions in 0.5% FBS media (control).
2) 1.4 ml appropriate treatments were added to each well of a 6-well plate.
5) 100 μl cell suspension was added to each well.
7) After the specified time cell supematants were collected into 1.5 ml eppendorf tubes, spun down at 14000 rpm for 5 minutes and stored at −20° C.
D. Refer to Procedure #1 For HeLa Cells (D).

[3] = test system: HeLa cells; assay: Cytotoxicity (viable cell count) in HeLa cells; type: cell-based, human; details: S1P concentrations up to 10 μM
From the text: Follow Procedure #2 For HeLa Cells with the following exceptions: […]

[4] = test system: COS-1 cells; assay: IL-8 ELISA on control COS-1 cells (empty vector pcDNA3); type: cell-based; details: COS-1 cells transfected with pcDNA3; S1P 5 μm
Protocol: A. DEAE/Dextran Cell Suspension Transient Transfection.
Transfection was done as described in Anal Biochem 218:460 (1994).
1) 6 ml RSC was added to 4-50 ml tubes. The following amounts of DNA were added:
3) 1.5 ml COS-1 cell suspension (5.5×10^6 cells total) in RSC was added to each tube and incubated for 105 min in 37° C. incubator. Tubes were mixed every 20 min.
4) Following incubation, tubes were spun for 5 min, cell pellets were washed with DMEM/F12+10% FBS once and then resuspended in 10 ml media. Cells were plated in 24-well plates at 0.2×10^6 cells/well.
500 μl treatment volume was used. Supernatants were microfuged at 14,000 rpm for 10 min., transferred to new eppendorf tubes and stored at −20° C. for future IL-8 ELISA determination.
The procedure as outlined in Procedure for HeLa Cells (D) was followed, using 50 μl of sample per ELISA determination in duplicate.

[5] = test system: 293-EBNA cells; assay: IL-8 production in untransfected 293-EBNA cells; type: cell-based
[6] = molecular target: T1, EDG-1 (Homo sapiens, UniProt P21453); assay: Calcium microfluorimetry (fura-2) in 293-EBNA cells, EDG-1; type: cell-based; details: 2 and 10 μM, preliminary data
Protocol: (§1) Transfections were carried out with EDG receptors in 293-EBNA cells as described above, except that no reporter gene vector was included in the DNA mix. Two days after transfection, cells were harvested by trypsinization and plated at a density of 200,000 cells onto poly-D-lysine-coated coverslips in 100 μl of medium containing 0.5% FBS. After briefly allowing cell attachment to take place, 2 ml of medium without FBS was added and the cells were incubated overnight. The next day, cells were loaded with 5 μM fura-2 AM ester (Molecular Probes) for 60 min at RT, then washed and used for calcium microfluorimetry. […] Treatments were applied using a gravity-fed perfusion apparatus. Fluorescence emission was continuously monitored and recorded with PTI 2.060a software and analyzed with Sigma Plot software. Intracellular calcium concentrations were calculated by interpolation on a ratiometric fluorescence curve generated from fura-2 fluorescence in a calcium dilution series.

[7] = molecular target: T2, human EDG-3 (Homo sapiens, UniProt Q99500); assay: Calcium microfluorimetry in 293-EBNA cells, EDG-3; type: cell-based; details: EDG-3 transfected cells; 2 μM S1P
T2 construct: expressed in transfected cells; host or cells: 293-EBNA
Protocol: as §1

[8] = test system: EDG-7; assay: Calcium microfluorimetry in 293-EBNA cells, EDG-7; type: cell-based; details: 2 and 10 μM, preliminary data
Protocol: as §1

[9] = test system: EDG-7; assay: NF-κB reporter, EDG-7; type: cell-based
[10] = molecular target: T1, EDG-1; assay: SRE luciferase reporter (2XSREtk-p4Luc-zeo) in 293-EBNA cells, EDG-1; type: cell-based; set-up: expressed in transfected cells; host or cells: 293-EBNA; details: 3 μM, 6 hours

T1 sequence (P21453 whole entry, the tested form may be a part): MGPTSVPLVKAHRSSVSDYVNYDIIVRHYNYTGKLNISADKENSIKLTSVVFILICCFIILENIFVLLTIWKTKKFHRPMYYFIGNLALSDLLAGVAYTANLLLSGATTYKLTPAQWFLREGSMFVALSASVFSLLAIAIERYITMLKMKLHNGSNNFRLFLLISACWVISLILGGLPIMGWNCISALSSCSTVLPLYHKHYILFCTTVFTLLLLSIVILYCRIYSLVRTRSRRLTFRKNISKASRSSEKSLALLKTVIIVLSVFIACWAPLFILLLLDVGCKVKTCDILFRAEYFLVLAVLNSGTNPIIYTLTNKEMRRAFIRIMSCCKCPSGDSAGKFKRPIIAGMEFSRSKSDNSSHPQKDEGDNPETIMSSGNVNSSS
T2 sequence (Q99500 whole entry): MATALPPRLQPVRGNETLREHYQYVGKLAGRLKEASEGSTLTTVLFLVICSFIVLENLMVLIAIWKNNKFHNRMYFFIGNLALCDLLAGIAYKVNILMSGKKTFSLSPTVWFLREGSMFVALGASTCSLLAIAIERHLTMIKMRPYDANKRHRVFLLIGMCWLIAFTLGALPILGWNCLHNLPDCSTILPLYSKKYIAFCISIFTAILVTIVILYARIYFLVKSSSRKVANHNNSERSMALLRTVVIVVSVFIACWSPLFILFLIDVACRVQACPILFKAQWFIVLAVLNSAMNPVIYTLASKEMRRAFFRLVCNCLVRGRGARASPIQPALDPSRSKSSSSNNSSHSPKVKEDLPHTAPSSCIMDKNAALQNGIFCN

SMILES | IL-8 response (qualitative) [1] | IL-8 release [2] | Cell viability 24 hr after treatment [3] | IL-8 response in control cells [4] | IL-8 production [5] | Qualitative calcium response [6] | Increase in intracellular calcium [7] [nM] | Qualitative calcium response [8] | NF-κB reporter signaling [9] | Increase in luciferase activity (SRE reporter) [10] [fold]
CCCCCCCCCCCCC/C=C/[C@@H](O)[C@@H](N)COP(=O)([O-])OCC[N+](C)(C)C [SPC, sphingosylphosphorylcholine] | Marginal increases | – | – | – | – | – | – | – | – | –
CCCCCCCCCCCCC/C=C/[C@@H](O)[C@@H](N)COP(=O)(O)O [S1P, sphingosine-1-phosphate] | – | no such release; also recorded: fail to produce IL-8 | No loss of HeLa viability | No IL-8 response | no IL-8 production | None within 20 min | 300 | None within 20 min | fail to signal through NF-κB reporters | 8
